# Several values for one entry are separate records, joined by “and”; a condition that tells them apart may be missing. Identical values can stand only once.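 The compound was tested at five concentrations on cells cultured in 96-well plates, with a 48-hour exposure period. Abbreviation: GI50, concentration required for 50% inhibition of growth. TGI: concentration producing complete growth inhibition.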
# Legend:
# Assay in all cases: inhibition of tumour cell growth, NCI panel, 48 h
# HCT-15 colon = tested on: HCT-15 colon
# IGROV1 ovarian = tested on: IGROV1 ovarian
# UACC-257 melanoma = tested on: UACC-257 melanoma
# LOX IMVI melanoma = tested on: LOX IMVI melanoma
# MOLT-4 leukemia = tested on: MOLT-4 leukemia
# SF-295 CNS = tested on: SF-295 CNS
# HCC-2998 colon = tested on: HCC-2998 colon
# U251 CNS = tested on: U251 CNS
# CAKI-1 renal = tested on: CAKI-1 renal
# SR leukemia = tested on: SR leukemia
# HT29 colon = tested on: HT29 colon
# SK-OV-3 ovarian = tested on: SK-OV-3 ovarian
# 786-0 renal = tested on: 786-0 renal
# SNB-75 CNS = tested on: SNB-75 CNS
# A498 renal = tested on: A498 renal
# ACHN renal = tested on: ACHN renal
# SK-MEL-28 melanoma = tested on: SK-MEL-28 melanoma
# COLO 205 colon = tested on: COLO 205 colon
# MDA-MB-435 = tested on: MDA-MB-435
# DU-145 prostate = tested on: DU-145 prostate
# UO-31 renal = tested on: UO-31 renal
# UACC-62 melanoma = tested on: UACC-62 melanoma
# HOP-92 NSCLC = tested on: HOP-92 NSCLC
# A549 NSCLC = tested on: A549 NSCLC
# SK-MEL-5 melanoma = tested on: SK-MEL-5 melanoma
# MCF7 breast = tested on: MCF7 breast
# RXF 393 renal = tested on: RXF 393 renal
# MALME-3M melanoma = tested on: MALME-3M melanoma
# NCI-H522 lung = tested on: NCI-H522 lung
# HS 578T breast = tested on: HS 578T breast
# BT-549 breast = tested on: BT-549 breast
# NCI-H460 lung = tested on: NCI-H460 lung
# HCT-116 colon = tested on: HCT-116 colon
# MDA-N = tested on: MDA-N
# SNB-19 CNS = tested on: SNB-19 CNS
# SK-MEL-2 melanoma = tested on: SK-MEL-2 melanoma
# OVCAR-8 ovarian = tested on: OVCAR-8 ovarian
# TK-10 renal = tested on: TK-10 renal
# NCI/ADR-RES ovarian = tested on: NCI/ADR-RES ovarian
# OVCAR-5 ovarian = tested on: OVCAR-5 ovarian
# OVCAR-3 ovarian = tested on: OVCAR-3 ovarian
# MDA-MB-231 breast = tested on: MDA-MB-231 breast
# RPMI-8226 leukemia = tested on: RPMI-8226 leukemia
# EKVX NSCLC = tested on: EKVX NSCLC
# SW-620 colon = tested on: SW-620 colon
# T-47D breast = tested on: T-47D breast
# NCI-H23 lung = tested on: NCI-H23 lung
# K-562 leukemia = tested on: K-562 leukemia
# PC-3 prostate = tested on: PC-3 prostate
# SN12C renal = tested on: SN12C renal
# M14 melanoma = tested on: M14 melanoma
# OVCAR-4 ovarian = tested on: OVCAR-4 ovarian
# HOP-62 NSCLC = tested on: HOP-62 NSCLC
# SF-268 CNS = tested on: SF-268 CNS
# CCRF-CEM leukemia = tested on: CCRF-CEM leukemia
# KM12 colon = tested on: KM12 colon
# SF-539 CNS = tested on: SF-539 CNS
# NCI-H226 lung = tested on: NCI-H226 lung
# HL-60(TB) leukemia = tested on: HL-60(TB) leukemia
smiles,measurement,setting,value
COc1ccccc1N=Nc1c(O)ccc2ccccc12,TGI,HCT-15 colon,> 100 µM
same,GI50,IGROV1 ovarian,3.93 µM and 35.4 µM
same,TGI,IGROV1 ovarian,> 100 µM
same,GI50,UACC-257 melanoma,41.5 µM and > 100 µM
same,TGI,UACC-257 melanoma,> 100 µM
same,GI50,LOX IMVI melanoma,25.1 µM and 55.7 µM
same,TGI,LOX IMVI melanoma,> 100 µM
same,TGI,MOLT-4 leukemia,> 100 µM
same,TGI,SF-295 CNS,48.3 µM and 78.2 µM
same,TGI,HCC-2998 colon,71 µM
same,TGI,U251 CNS,> 62.4 µM and 40.4 µM
same,TGI,CAKI-1 renal,38.8 µM and 48.6 µM
same,TGI,SR leukemia,> 100 µM
same,TGI,HT29 colon,> 100 µM
same,TGI,SK-OV-3 ovarian,29.5 µM and 38.3 µM
same,TGI,786-0 renal,26.7 µM and 40.3 µM
same,TGI,SNB-75 CNS,41.8 µM and 39.7 µM
same,TGI,A498 renal,62.3 µM and 89.2 µM
same,TGI,ACHN renal,27.2 µM
same,TGI,SK-MEL-28 melanoma,> 100 µM
same,TGI,COLO 205 colon,> 100 µM
same,TGI,MDA-MB-435,> 100 µM
same,TGI,DU-145 prostate,> 100 µM
same,TGI,UO-31 renal,39.1 µM
same,GI50,UACC-62 melanoma,30.4 µM and 61.4 µM
same,TGI,UACC-62 melanoma,> 100 µM
same,TGI,HOP-92 NSCLC,56.3 µM and 42.5 µM
same,TGI,A549 NSCLC,> 100 µM
same,TGI,SK-MEL-5 melanoma,> 89.9 µM and 59.2 µM
same,TGI,MCF7 breast,> 100 µM
same,GI50,RXF 393 renal,12.3 µM and 28.7 µM
same,TGI,RXF 393 renal,35.3 µM and 59.7 µM
same,TGI,MALME-3M melanoma,16.2 µM and > 100 µM
same,GI50,NCI-H522 lung,> 100 µM and 41.8 µM
same,TGI,NCI-H522 lung,> 100 µM
same,TGI,HS 578T breast,> 100 µM
same,TGI,BT-549 breast,> 100 µM
same,TGI,NCI-H460 lung,38.1 µM
same,TGI,HCT-116 colon,> 100 µM
same,TGI,MDA-N,> 100 µM
same,TGI,SNB-19 CNS,> 74.7 µM and 90.4 µM
same,TGI,SK-MEL-2 melanoma,> 100 µM
same,TGI,OVCAR-8 ovarian,> 100 µM
same,TGI,TK-10 renal,31.8 µM and 59.1 µM
same,TGI,NCI/ADR-RES ovarian,> 100 µM
same,TGI,OVCAR-5 ovarian,> 100 µM
same,TGI,OVCAR-3 ovarian,> 100 µM
same,TGI,MDA-MB-231 breast,> 100 µM
same,GI50,RPMI-8226 leukemia,30.4 µM and > 100 µM
same,TGI,RPMI-8226 leukemia,> 100 µM
same,GI50,EKVX NSCLC,4.42 µM and 19.5 µM
same,TGI,EKVX NSCLC,36.2 µM and 96.1 µM
same,TGI,SW-620 colon,> 100 µM
same,TGI,T-47D breast,> 100 µM
same,TGI,NCI-H23 lung,> 100 µM
same,TGI,K-562 leukemia,> 100 µM
same,TGI,PC-3 prostate,> 100 µM
same,TGI,SN12C renal,> 100 µM
same,GI50,M14 melanoma,33.6 µM and 85 µM
same,TGI,M14 melanoma,> 100 µM
same,GI50,OVCAR-4 ovarian,10.2 µM and 35.4 µM
same,TGI,OVCAR-4 ovarian,62.9 µM and 95.2 µM
same,TGI,HOP-62 NSCLC,30.9 µM and 34.6 µM
same,TGI,SF-268 CNS,> 100 µM
same,TGI,CCRF-CEM leukemia,> 100 µM
same,TGI,KM12 colon,> 100 µM
CCCCCCCCCCCC1=C(O)C(=O)C(CC2=C(O)C(=O)C(CCCCCCCCCCC)=C(O)C2=O)=C(O)C1=O,TGI,HCT-15 colon,> 100 µM
same,TGI,IGROV1 ovarian,> 100 µM
same,TGI,UACC-257 melanoma,> 100 µM
same,TGI,LOX IMVI melanoma,> 100 µM
same,TGI,MOLT-4 leukemia,> 100 µM
same,TGI,SF-295 CNS,> 100 µM
same,TGI,HCC-2998 colon,> 100 µM
same,TGI,U251 CNS,> 100 µM
same,TGI,CAKI-1 renal,> 100 µM
same,TGI,SR leukemia,42.4 µM
same,TGI,HT29 colon,> 100 µM
same,TGI,SK-OV-3 ovarian,> 100 µM
same,TGI,786-0 renal,> 100 µM
same,TGI,SF-539 CNS,> 100 µM
same,TGI,SNB-75 CNS,37.5 µM
same,TGI,A498 renal,98.2 µM
same,TGI,ACHN renal,> 100 µM
same,TGI,SK-MEL-28 melanoma,> 100 µM
same,TGI,COLO 205 colon,> 100 µM
same,TGI,MDA-MB-435,> 100 µM
same,TGI,DU-145 prostate,> 100 µM
same,TGI,UO-31 renal,> 100 µM
same,TGI,UACC-62 melanoma,> 100 µM
same,TGI,HOP-92 NSCLC,55.2 µM
same,TGI,A549 NSCLC,> 100 µM
same,TGI,SK-MEL-5 melanoma,> 100 µM
same,TGI,MCF7 breast,> 100 µM
same,TGI,RXF 393 renal,25.2 µM
same,TGI,MALME-3M melanoma,> 100 µM
same,TGI,NCI-H522 lung,> 100 µM
same,TGI,HS 578T breast,> 100 µM
same,TGI,BT-549 breast,> 100 µM
same,TGI,NCI-H460 lung,> 100 µM
same,TGI,HCT-116 colon,> 100 µM
same,TGI,MDA-N,> 100 µM
same,TGI,SNB-19 CNS,73.3 µM
same,TGI,SK-MEL-2 melanoma,> 100 µM
same,TGI,OVCAR-8 ovarian,> 100 µM
same,TGI,TK-10 renal,> 100 µM
same,TGI,NCI/ADR-RES ovarian,> 100 µM
same,TGI,OVCAR-5 ovarian,> 100 µM
same,TGI,MDA-MB-231 breast,> 100 µM
same,TGI,EKVX NSCLC,> 100 µM
same,TGI,SW-620 colon,> 100 µM
same,TGI,T-47D breast,> 100 µM
same,TGI,NCI-H23 lung,> 100 µM
same,TGI,K-562 leukemia,> 100 µM
same,TGI,PC-3 prostate,> 100 µM
same,TGI,SN12C renal,> 100 µM
same,TGI,M14 melanoma,> 100 µM
same,TGI,OVCAR-4 ovarian,> 100 µM
same,TGI,NCI-H226 lung,> 100 µM
same,TGI,SF-268 CNS,> 100 µM
same,TGI,CCRF-CEM leukemia,64.4 µM
same,TGI,KM12 colon,> 100 µM
O=C(Nc1cccc2ccccc12)c1cc2ccccc2oc1=O,TGI,HCT-15 colon,> 100 µM
same,TGI,IGROV1 ovarian,> 100 µM
same,TGI,UACC-257 melanoma,> 100 µM
same,TGI,LOX IMVI melanoma,> 100 µM
same,TGI,MOLT-4 leukemia,> 100 µM
same,TGI,HCC-2998 colon,> 100 µM
same,TGI,U251 CNS,> 100 µM
same,TGI,CAKI-1 renal,> 100 µM
same,TGI,SR leukemia,> 100 µM
same,TGI,HT29 colon,> 100 µM
same,TGI,SK-OV-3 ovarian,> 100 µM
same,TGI,786-0 renal,50.3 µM
same,TGI,SF-539 CNS,81.8 µM
same,TGI,SNB-75 CNS,> 100 µM
same,TGI,A498 renal,> 100 µM
same,TGI,ACHN renal,> 100 µM
same,TGI,SK-MEL-28 melanoma,> 100 µM
same,TGI,COLO 205 colon,> 100 µM
same,TGI,MDA-MB-435,> 100 µM
same,TGI,DU-145 prostate,> 100 µM
same,TGI,UACC-62 melanoma,> 100 µM
same,TGI,HOP-92 NSCLC,> 100 µM
same,TGI,HL-60(TB) leukemia,> 100 µM
same,TGI,A549 NSCLC,> 100 µM
same,TGI,SK-MEL-5 melanoma,> 100 µM
same,TGI,MCF7 breast,> 100 µM
same,TGI,RXF 393 renal,> 100 µM
same,TGI,MALME-3M melanoma,> 100 µM
same,TGI,HS 578T breast,> 100 µM
same,TGI,BT-549 breast,> 100 µM
same,TGI,NCI-H460 lung,> 100 µM
same,TGI,HCT-116 colon,> 100 µM
same,TGI,MDA-N,> 100 µM
same,TGI,SNB-19 CNS,85.1 µM
same,TGI,SK-MEL-2 melanoma,> 100 µM
same,TGI,OVCAR-8 ovarian,> 100 µM
same,TGI,NCI/ADR-RES ovarian,> 100 µM
same,TGI,OVCAR-5 ovarian,> 100 µM
same,TGI,OVCAR-3 ovarian,> 100 µM
same,TGI,MDA-MB-231 breast,58.1 µM
same,TGI,RPMI-8226 leukemia,> 100 µM
same,TGI,SW-620 colon,> 100 µM
same,TGI,T-47D breast,> 100 µM
same,TGI,NCI-H23 lung,> 100 µM
same,TGI,K-562 leukemia,> 100 µM
same,TGI,PC-3 prostate,> 100 µM
same,TGI,SN12C renal,> 100 µM
same,TGI,M14 melanoma,> 100 µM
same,TGI,OVCAR-4 ovarian,> 100 µM
same,TGI,HOP-62 NSCLC,49.4 µM
same,TGI,NCI-H226 lung,54.4 µM
same,TGI,SF-268 CNS,> 100 µM
same,TGI,CCRF-CEM leukemia,> 100 µM
same,TGI,KM12 colon,> 100 µM

# From PubChem BioAssay (NCI)
